Test results as given in ChEMBL document CHEMBL1145107, “Peptide science: exploring the use of chemical principles and interdisciplinary collaboration for understanding life processes” (J Med Chem, 2003).
pEC50, pIC50: −log10 of the molar value. *1 amine or outer side, *2 acyl side, *3 side chain or, on linkers, in order; H or OH if unused. Where a SMILES comes first, the peptide text is derived from it. [ ]: non-standard residue; d: D form. X3 = Cc1cc(O)cc(C)c1[C@@H](C)[C@H](N[*:1])C(=O)[*:2]; Pen = CC(C)(S)[C@H](N)C(=O)O

Key:
[1] = target: Mu-type opioid receptor (Cavia porcellus) (UniProt P97266); assay: In vitro bioassay data to determine the effective concentration required for antagonistic activity against Opioid receptor mu 1 in functional assay, GPI at a concentration of 60 uM; set-up: scale not given: the % may be the effect or the level left
Mu-type opioid receptor [2] = target: Mu-type opioid receptor (Cavia porcellus, UniProt P97266); assay: In vitro bioassay data to determine the effective concentration required for antagonistic activity against Opioid receptor mu 1 in functional assay, GPI
[3] = target: Delta-type opioid receptor (Rattus norvegicus, UniProt P33533); assay: Binding affinity towards Opioid receptor delta 1 using [3H]- [p-CIPhe4] DPDPE as radioligand
[4] = target: Delta-type opioid receptor (Mus musculus, UniProt P32300); assay: In vitro bioassay data to determine the effective concentration required for antagonistic activity against Opioid receptor delta 1 in functional assay, MVD
Mu-type opioid receptor [5] = target: Mu-type opioid receptor (Homo sapiens, UniProt P35372); assay: Binding affinity towards Opioid receptor mu 1 using [3H]- CTOP as radioligand
Sequence of Mu-type opioid receptor (Homo sapiens, UniProt P35372) (P35372 whole entry): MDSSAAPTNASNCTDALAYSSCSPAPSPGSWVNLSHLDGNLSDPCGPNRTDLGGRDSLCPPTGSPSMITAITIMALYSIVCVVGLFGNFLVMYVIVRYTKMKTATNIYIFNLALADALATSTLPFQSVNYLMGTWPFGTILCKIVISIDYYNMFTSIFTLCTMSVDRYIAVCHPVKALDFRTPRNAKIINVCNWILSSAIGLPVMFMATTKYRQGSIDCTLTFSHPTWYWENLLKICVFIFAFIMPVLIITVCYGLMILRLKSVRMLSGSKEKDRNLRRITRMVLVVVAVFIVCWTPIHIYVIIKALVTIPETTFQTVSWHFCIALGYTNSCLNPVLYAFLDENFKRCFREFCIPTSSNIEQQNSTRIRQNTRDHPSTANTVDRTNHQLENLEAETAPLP

Sequence of Delta-type opioid receptor (Mus musculus, UniProt P32300) (P32300 whole entry): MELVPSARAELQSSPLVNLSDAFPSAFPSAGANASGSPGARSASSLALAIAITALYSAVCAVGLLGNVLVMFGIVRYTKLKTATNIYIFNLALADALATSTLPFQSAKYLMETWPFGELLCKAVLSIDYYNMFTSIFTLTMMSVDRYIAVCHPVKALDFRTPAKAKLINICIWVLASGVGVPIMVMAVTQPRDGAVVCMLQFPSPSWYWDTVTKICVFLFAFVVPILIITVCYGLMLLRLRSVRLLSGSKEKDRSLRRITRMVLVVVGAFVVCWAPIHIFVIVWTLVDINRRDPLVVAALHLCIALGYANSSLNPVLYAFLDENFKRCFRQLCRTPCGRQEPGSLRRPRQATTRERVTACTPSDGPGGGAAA
Sequence of Delta-type opioid receptor (Rattus norvegicus, UniProt P33533) (P33533 whole entry): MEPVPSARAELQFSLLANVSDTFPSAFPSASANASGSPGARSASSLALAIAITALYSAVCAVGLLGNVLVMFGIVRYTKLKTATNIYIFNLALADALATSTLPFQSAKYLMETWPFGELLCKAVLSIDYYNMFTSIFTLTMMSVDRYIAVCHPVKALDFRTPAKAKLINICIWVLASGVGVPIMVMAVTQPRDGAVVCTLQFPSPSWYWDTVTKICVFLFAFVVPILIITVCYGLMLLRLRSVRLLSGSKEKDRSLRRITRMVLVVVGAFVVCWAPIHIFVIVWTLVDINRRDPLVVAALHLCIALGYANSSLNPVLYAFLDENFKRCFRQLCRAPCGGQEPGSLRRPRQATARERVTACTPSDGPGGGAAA
Sequence of Mu-type opioid receptor (Cavia porcellus, UniProt P97266) (P97266 whole entry): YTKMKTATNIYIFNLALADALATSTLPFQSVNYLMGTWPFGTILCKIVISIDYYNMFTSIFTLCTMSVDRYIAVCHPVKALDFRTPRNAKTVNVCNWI
Sequence of Mu-type opioid receptor (Cavia porcellus) (P97266 whole entry): as above

Row | SMILES | Activity [1] [%] | pEC50 (Mu-type opioid receptor [2]) | pIC50 [3] | pEC50 [4] | pIC50 (Mu-type opioid receptor [5])
1 | Cc1cc(O)cc(C)c1[C@@H](C)[C@H](N)C(=O)N[C@H](C(=O)NCC(=O)N[C@@H](Cc1ccccc1)C(=O)N[C@H](C(=O)O)C(C)(C)S)C(C)(C)S (H-[X3][Pen]GF[Pen]-OH) | 0 |  |  |  | 
2 | Cc1cc(O)cc(C)c1[C@@H](C)[C@@H](N)C(=O)N[C@H]1C(=O)NCC(=O)N[C@@H](Cc2ccccc2)C(=O)N[C@@H](C(=O)O)C(C)(C)SSC1(C)C |  | 4.30 | 5.46 | 5.66 | 4.11
